According to patent US9562035B2, “Benzamide derivative useful as FASN inhibitors for the treatment of cancer” (Janssen Pharmaceutica NV, priority 2013, dated 2017):

Tests used:
[1] = target: T1, FASN Keto-reductase Domain (Homo sapiens, UniProt P49327); experiment: Fatty Acid Synthase Keto-Reductase Domain (FASN KR) Inhibition; type: biochemical; conditions: mean where tested more than once; read-out: FASN K-R Domain pIC50 (converted)
T1 construct: 10 μL hFASN enzyme (full length, 300 ng, purified in house) and 360 μM NADPH; made in house
Experimental: 10 μL assay buffer (100 mM KH2PO4 pH 7.5) was added to a 384-well clear plate (costar 3702). 0.3 μL compound (at concentrations of 30 μM, 10 μM, 3 μM, 1 μM, 0.30 μM, 0.10 μM, 0.03 μM and 0.01 μM)/DMSO, 10 μL hFASN enzyme (full length, 300 ng, purified in house) and 360 μM NADPH (except in blank) were then added. Then, 10 μL 180 mM ethyl acetoacetate (Aldrich 688983) was added, mixed and immediately thereafter, the absorbance at 340 nm (T1) by Multiscan (Labsystems) was measured. After 20 minutes incubation at room temperature the plate was measured again (T2).
The decrease in absorbance was calculated as (Absorbance before incubation T1)−(Absorbance following incubation T2).
(§1) Raw data generated by the instrument were normalized to % Controlmin values, which were calculated as: % Controlmin=100*(x−mLC)/(mHC−mLC)
(§2) where mLC and mHC were the means of the low control wells and high control wells on the plate, after manual exclusion of outliers. A plot of Controlmin versus test compound concentration was fitted to a 4-parameter logistic curve using a non-linear least squares regression method. From the plot, an IC50 (concentration at which 50% inhibition is achieved) was calculated. pIC50 values were calculated as −log(IC50), when IC50 is expressed in molar units.

A2780 ovarian cells [2] = experiment: A2780 Ovarian Cell Proliferation Assay in Lipid Reduced Medium, without Palmitate; type: cell-based; conditions: Homo sapiens, A2780; lipid reduced medium, without palmitate, 96 h, MTT; read-out: Proliferation A2780 w/o Palmitate pIC50 (converted)
Experimental: (§3) The biological assays described below correspond to comparative assays for ovarian cell proliferation. […] Compounds active in the absence of palmitate would not be expected to be active in the control.
(§4) 2500 cells were seeded in a 96-well clear well plate in 200 μL RPMI1640 with 10% Fetal Calf Serum (Hyclone), and incubated at 37° C., 5% CO2. Blanks were wells without cells. The next day the culture medium was aspirated and replaced by 160 μL culture medium with 10% Lipid-Reduced Serum (LRS, Hyclone). 20 μL test compound (at concentrations of 30 μM, 10 μM, 3 μM, 1 μM, 0.30 μM, 0.10 μM, 0.03 μM and 0.01 μM)/DMSO dilution followed by 20 μL ethanol-BSA solution were added to a final concentrations of 0.2% DMSO, 0.2% fatty-acid-free BSA, 0.25% ethanol. After 96 h incubation an MTT assay was performed. The absorbance was measured at 544 nm on a SPECTRAMAX.
as §1, §2
(§5) Representative compounds of the present invention were tested according to the procedure as described in Biological Example 3 above, with results as listed in Table BIO-3, below.

A2780 ovarian cells [3] = experiment: A2780 Ovarian Cell Proliferation Assay in Lipid Reduced Medium, with Palmitate (control); type: cell-based; conditions: Homo sapiens, A2780; lipid reduced medium, 25 μM palmitate, 96 h, MTT; read-out: Proliferation A2780 with Palmitate pIC50 (converted)
Experimental: as §3
as §4, with “palmitate-BSA” for “ethanol-BSA”, “DMSO, 25 μM palmitate (Sigma, P0500, 10 mM stock solution in ethanol)” for “DMSO,”, “incubation,” for “incubation”
A best fit curve was fitted by a minimum sum of squares method, plotting Controlmin versus test compound concentration. From the plot, an IC50 (concentration at which 50% inhibition is achieved) was calculated. pIC50 values, presented in the Table below, were calculated as −log(IC50).
as §5

[4] = target: T2, hFASN enzyme (full length) (Homo sapiens, UniProt P49327); experiment: Fatty Acid Synthase (FASN) Inhibition Scintillation Proximity Assay; type: biochemical; conditions: for IC50: mean where tested more than once, ~ = standard error of pIC50 larger than 0.5; for inhibition at 10 µM: read-out: FASN % Effect @1E−05M
T2 construct: 10 μL hFASN enzyme (full length, 300 ng, purified in house); made in house
Experimental: In this assay, inhibition of FASN activity is measured using ^3H-acetyl-CoA and malonyl-CoA as substrates. ^3H-Acetyl CoA is converted to ^3H-palmitate through a series of reactions by the FASN protein, which contains 7 functional domains and carries out 7 enzymatic reactions to ultimately produce ^3H-palmitate. The assay principle is based upon the fact that ^3H-acetyl-CoA is hydrophilic and the end product, ^3H-palmitate is hydrophobic.
10 μL assay buffer (100 mM KH2PO4 pH 7.5, 1 mM DTT) (20 μL in blanks) was added to a 384-well white Opti Plate plate (Perkin Elmer). 0.9 μL test compound (at concentrations of 30 μM, 10 μM, 3 μM, 1 μM, 0.30 μM, 0.10 μM, 0.03 μM and 0.01 μM)/DMSO and 10 μL hFASN enzyme (full length, 300 ng, purified in house) or 10 μL assay buffer was added to the wells. Then 10 μL 450 μM NADPH (Sigma N7505), 18.75 μM [^3H]-acetyl-CoA (Perkin Elmer NET-290L), 150 μM malonyl-CoA (Sigma M4263) were added, mixed and incubated at room temperature for 60 minutes. The reaction was stopped by adding 20 μL Streptavidin coupled imaging beads (25 mg/ml). After incubation for 30 minutes at room temperature in the dark, the 384 well plate was centrifuged at 1500 rpm for 3 minutes and was measured after at least 24 hrs by the LEADseeker™, measuring emission using a 610±20 nm pass filter. (Bays, N. W., et al., “A simplified scintillation proximity assay for fatty acid synthase activity: development and comparison with other FAS activity assays”, J. Biomol. Screen, 2009, pp 636-642, Vol. 14(6).)
as §1, §2

T1 sequence (P49327 whole entry, the tested form may be a part): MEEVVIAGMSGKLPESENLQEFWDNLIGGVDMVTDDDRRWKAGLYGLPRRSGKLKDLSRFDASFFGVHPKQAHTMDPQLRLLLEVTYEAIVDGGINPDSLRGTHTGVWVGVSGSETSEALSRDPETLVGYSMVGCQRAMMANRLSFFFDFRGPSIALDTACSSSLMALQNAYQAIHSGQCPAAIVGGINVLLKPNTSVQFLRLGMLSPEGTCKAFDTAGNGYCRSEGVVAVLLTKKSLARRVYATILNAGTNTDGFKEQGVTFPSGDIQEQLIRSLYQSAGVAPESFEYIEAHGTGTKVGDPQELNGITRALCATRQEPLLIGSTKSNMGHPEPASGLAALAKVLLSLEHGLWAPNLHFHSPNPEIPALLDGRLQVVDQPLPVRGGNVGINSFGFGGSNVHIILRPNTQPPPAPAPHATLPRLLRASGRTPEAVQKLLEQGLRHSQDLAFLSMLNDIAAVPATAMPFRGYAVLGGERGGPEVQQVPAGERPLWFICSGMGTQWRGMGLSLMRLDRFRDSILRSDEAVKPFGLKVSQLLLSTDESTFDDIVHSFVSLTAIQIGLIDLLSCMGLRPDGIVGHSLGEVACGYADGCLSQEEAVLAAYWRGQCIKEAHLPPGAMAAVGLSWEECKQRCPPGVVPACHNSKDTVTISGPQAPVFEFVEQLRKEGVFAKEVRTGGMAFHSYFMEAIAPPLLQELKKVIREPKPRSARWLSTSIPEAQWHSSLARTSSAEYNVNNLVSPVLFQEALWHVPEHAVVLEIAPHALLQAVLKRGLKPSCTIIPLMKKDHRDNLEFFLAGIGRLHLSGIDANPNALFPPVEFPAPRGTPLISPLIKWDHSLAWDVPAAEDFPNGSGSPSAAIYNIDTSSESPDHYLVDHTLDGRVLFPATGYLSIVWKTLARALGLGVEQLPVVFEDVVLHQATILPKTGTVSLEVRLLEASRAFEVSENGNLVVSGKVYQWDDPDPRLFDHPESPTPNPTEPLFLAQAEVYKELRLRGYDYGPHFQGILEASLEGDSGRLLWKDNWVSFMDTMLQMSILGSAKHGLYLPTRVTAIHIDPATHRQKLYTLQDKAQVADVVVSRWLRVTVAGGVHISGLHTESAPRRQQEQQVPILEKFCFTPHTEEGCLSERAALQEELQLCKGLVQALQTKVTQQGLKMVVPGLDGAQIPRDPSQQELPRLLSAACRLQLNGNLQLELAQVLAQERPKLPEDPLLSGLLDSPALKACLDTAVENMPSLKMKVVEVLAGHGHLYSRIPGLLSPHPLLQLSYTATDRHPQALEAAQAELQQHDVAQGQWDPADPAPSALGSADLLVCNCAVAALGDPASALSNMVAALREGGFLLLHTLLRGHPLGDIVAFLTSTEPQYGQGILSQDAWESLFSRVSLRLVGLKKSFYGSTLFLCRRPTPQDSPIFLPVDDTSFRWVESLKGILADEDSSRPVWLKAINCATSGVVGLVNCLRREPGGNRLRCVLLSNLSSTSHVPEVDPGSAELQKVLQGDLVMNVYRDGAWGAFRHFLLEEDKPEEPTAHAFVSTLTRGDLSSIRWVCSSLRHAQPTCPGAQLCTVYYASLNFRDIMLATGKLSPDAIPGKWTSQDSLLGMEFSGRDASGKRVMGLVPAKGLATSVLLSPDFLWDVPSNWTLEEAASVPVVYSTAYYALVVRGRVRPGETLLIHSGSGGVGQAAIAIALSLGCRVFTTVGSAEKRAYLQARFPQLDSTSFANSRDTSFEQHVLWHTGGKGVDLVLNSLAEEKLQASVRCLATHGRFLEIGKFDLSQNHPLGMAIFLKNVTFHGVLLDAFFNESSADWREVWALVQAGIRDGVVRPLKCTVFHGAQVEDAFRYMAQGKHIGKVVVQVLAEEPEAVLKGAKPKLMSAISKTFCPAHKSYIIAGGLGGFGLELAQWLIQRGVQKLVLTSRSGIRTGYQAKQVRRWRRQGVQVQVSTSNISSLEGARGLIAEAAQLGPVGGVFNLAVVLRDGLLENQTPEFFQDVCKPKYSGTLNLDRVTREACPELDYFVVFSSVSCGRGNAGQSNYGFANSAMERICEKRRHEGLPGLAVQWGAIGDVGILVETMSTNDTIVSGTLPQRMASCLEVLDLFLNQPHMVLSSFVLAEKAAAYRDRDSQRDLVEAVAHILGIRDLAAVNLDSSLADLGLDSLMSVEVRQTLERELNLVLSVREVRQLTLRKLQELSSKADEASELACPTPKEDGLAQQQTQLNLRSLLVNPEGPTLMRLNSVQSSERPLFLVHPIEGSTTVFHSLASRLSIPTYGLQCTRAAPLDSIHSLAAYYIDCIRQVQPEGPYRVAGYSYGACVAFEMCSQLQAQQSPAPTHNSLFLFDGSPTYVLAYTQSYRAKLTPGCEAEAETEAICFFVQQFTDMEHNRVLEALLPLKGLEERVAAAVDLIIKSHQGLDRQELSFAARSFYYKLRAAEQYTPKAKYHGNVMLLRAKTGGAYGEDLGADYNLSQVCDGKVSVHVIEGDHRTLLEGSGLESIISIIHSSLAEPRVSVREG
T2 sequence (P49327 whole entry): as the sequence (P49327 whole entry, the tested form may be a part) above

Structure (SMILES)	IC50 [1] [nM]	IC50 (A2780 ovarian cells [2]) [nM]	IC50 (A2780 ovarian cells [3]) [nM]	IC50 [4] [nM]	inhibition at 10 µM [4] [%]
Cc1ccc(C(=O)N2CC(c3ccc(-c4cccc5ncccc45)cc3)C2)cc1NC(=O)c1ccc(NC(C)C)nc1 [Compound 12, 6-(isopropylamino)-N-(2-methyl-5-(3-(4-(quinolin-5-yl)phenyl)azetidine-1-carbonyl)phenyl)nicotinamide]	22.9	49	2240	38.9	111
CCC(=O)N[C@@H]1CC[C@H](C(=O)Nc2cc(C(=O)N3CCC(c4ccc(-c5ccnn5C)cc4)CC3)ccc2C)C1 [Compound 13, (1S,3R)—N-(2-methyl-5-(4-(4-(1-methyl-1H-pyrazol-5-yl)phenyl)piperidine-1-carbonyl)phenyl)-3-propionamidocyclopentanecarboxamide]	229	603	> 10000	126	99
Cc1ccc(C(=O)N2CC(c3ccc(-c4ccc5c(cnn5C)c4)cc3)C2)cc1NC(=O)c1ccc(NC(C)C)nc1 [Compound 16, 6-(isopropylamino)-N-(2-methyl-5-(3-(4-(1-methyl-1H-indazol-5-yl)phenyl)azetidine-1-carbonyl)phenyl)nicotinamide]	95.5	1410	> 10000	95.5	106
Cc1ccc(C(=O)N2CCC(c3ccc4c(c3)NC(=O)CC4)CC2)cc1NC(=O)c1ccc(Cl)nc1 [Compound 23, 6-chloro-N-(2-methyl-5-(4-(2-oxo-1,2,3,4-tetrahydroquinolin-7-yl)piperidine-1-carbonyl)phenyl)nicotinamide]	1170	1120	~10000	589	93
Cc1ccc(C(=O)N2CCC(c3ccc4ccncc4c3)CC2)cc1NC(=O)c1ccc(NC(C)C)nc1 [Compound 28, 6-(isopropylamino)-N-(5-(4-(isoquinolin-7-yl)piperidine-1-carbonyl)-2-methylphenyl)nicotinamide]	282	~204	2450	174	101
Cc1ccc(C(=O)N2CC(c3ccc(-c4ccc5cnccc5c4)cc3)C2)cc1NC(=O)c1ccc(NC(C)C)nc1 [Compound 29, 6-(isopropylamino)-N-(5-(3-(4-(isoquinolin-6-yl)phenyl)azetidine-1-carbonyl)-2-methylphenyl)nicotinamide]	29.5	174	> 15100	33.9	103
Cc1ccc(C(=O)N2CCC(c3ccc4c(c3)NC(=O)CC4)CC2)cc1NC(=O)c1ccc(NC(C)C)nc1 [Compound 35, 6-(isopropylamino)-N-(2-methyl-5-(4-(2-oxo-1,2,3,4-tetrahydroquinolin-7-yl)piperidine-1-carbonyl)phenyl)nicotinamide]	794	676	~8910	437	99
Cc1ccc(C(=O)N2CCC(c3ccc4ccncc4c3)CC2)cc1NC(=O)c1ccc(Cl)nc1 [Compound 37, 6-chloro-N-(5-(4-(isoquinolin-7-yl)piperidine-1-carbonyl)-2-methylphenyl)nicotinamide]	562	617	3390	537	94

More lines, in order of falling IC50 [4], values ahead:

IC50 [1] [nM]	IC50 (A2780 ovarian cells [2]) [nM]	IC50 (A2780 ovarian cells [3]) [nM]	IC50 [4] [nM]	inhibition at 10 µM [4] [%]	Structure (SMILES)
38.9	85.1	> 10000	33.9	111	Cc1ccc(C(=O)N2CC(c3ccc(-c4cnn(C)c4)cc3)C2)cc1NC(=O)c1ccc(NC(C)C)nc1 [Compound 24, 6-(isopropylamino)-N-(2-methyl-5-(3-(4-(1-methyl-1H-pyrazol-4-yl)phenyl)azetidine-1-carbonyl)phenyl)nicotinamide]
44.7	~57.5	> 15100	32.4	103	Cc1ccc(C(=O)N2CC(c3ccc(-c4cccnc4)cc3)C2)cc1NC(=O)c1ccc(NC(C)C)nc1 [Compound 10, 6-(isopropylamino)-N-(2-methyl-5-(3-(4-(pyridin-3-yl)phenyl)azetidine-1-carbonyl)phenyl)nicotinamide]
40.7	~2290	> 10000	32.4	105	Cc1ccc(C(=O)N2CC(c3ccc(-c4ccsc4)cc3)C2)cc1NC(=O)c1ccc(NC(C)C)nc1 [Compound 26, 6-(isopropylamino)-N-(2-methyl-5-(3-(4-(thiophen-3-yl)phenyl)azetidine-1-carbonyl)phenyl)nicotinamide]
16.6	33.9	5500	30.2	111	Cc1ccc(C(=O)N2CC(c3ccc(-c4ccnc5ccccc45)cc3)C2)cc1NC(=O)c1ccc(NC(C)C)nc1 [Compound 39, 6-(isopropylamino)-N-(2-methyl-5-(3-(4-(Quinolin-4-yl)phenyl)azetidine-1-carbonyl)phenyl)nicotinamide]
45.7	34.7	~2090	28.2	109	Cc1ccc(C(=O)N2CC(c3ccc(-c4ccnn4C)cc3)C2)cc1NC(=O)c1ccc(NC(C)C)nc1 [Compound 25, 6-(isopropylamino)-N-(2-methyl-5-(3-(4-(1-methyl-1H-pyrazol-5-yl)phenyl)azetidine-1-carbonyl)phenyl)nicotinamide]
52.5	25.1	1660	~17.8	104	Cc1ccc(C(=O)N2CC(c3ccc(-c4ccncc4)cc3)C2)cc1NC(=O)c1ccc(NC(C)C)nc1 [Compound 31, 6-(isopropylamino)-N-(2-methyl-5-(3-(4-(pyridin-4-yl)phenyl)azetidine-1-carbonyl)phenyl)nicotinamide]
